For the experiment, the target named is T1, IP receptor (Homo sapiens, UniProt P43119).
T1 construct: expressed in transfected cells; host or cells: CHO cells stably expressing the IP receptor (CHO-IP)
Kind of experiment: cAMP accumulation in CHO cells stably expressing the IP receptor (CHO-IP), Perkin Elmer AlphaScreen assay. It is filed as cell-based. The settings on record: agonist activity, 1 hour at room temperature. On the procedure: Activity of compounds at the IP receptor (IP receptor) is assessed by measuring cAMP accumulation in CHO cells stably expressing the IP receptor (CHO-IP) using the Perkin Elmer AlphaScreen assay. This technology measures the endogenous production of cAMP, in a non-radioactive luminescence proximity homogenous assay. A biological reaction occurs between streptavidin coated donor beads, biotinylated cAMP and anti-cAMP acceptor beads, bringing the donor and acceptor beads close enough together so that upon excitation a fluorescence signal is produced. On production of endogenous cAMP, competition between the biotinylated cAMP and cellular-derived cAMP causes a reduction in the fluorescent signal. The reduction in signal is proportional to the amount of cAMP being produced, thus it is possible to quantify the amount of cAMP being produced on stimulation with agonist.
Test and reference compounds are prepared at 100× [final] in 100% DMSO, and diluted 1:3 using a Biomek Fx (Beckman Coulter). This is followed by an intermediate dilution to give 5× [final] in assay buffer (HBSS containing 5 mM HEPES, 0.1% (w/v) BSA). 5 μL of 5× [final] test compounds, reference compounds and buffer/DMSO control are then transferred to a 384-well white OptiPlate, containing 20 μL CHO-IP cell suspension (15,000 cells/well, prepared from frozen), and plate is incubated at room temperature for 1 hour. A cAMP standard curve is constructed for each experiment (concentration range of 10000 nM to 0.001 nM, in assay buffer) and 25 μL of each concentration added to the last two columns of the assay plate. The incubation is terminated by the addition of lysis buffer (dH2O; 0.3% (v v^−1) Tween-20) containing 20 units mL^−1 streptavidin coated donor beads and biotinylated cAMP (pre-incubated for 30 minutes) and 20 units mL^−1 anti-cAMP acceptor beads, which are added to the lysis buffer just before addition to the assay plate. The assay plate is then incubated at room temperature in the dark, for 60 minutes with gentle shaking, and read on the Envision plate reader (Perkin Elmer).
The raw data of the reference compounds, test compounds and controls are converted into cAMP concentrations, using the cAMP standard curve, in Graph Pad Prism (Graph Pad Software Inc). EC50 as well as maximal values of the agonist curves are determined using a 4-parameter logistic equation. The % maximum response values of all test compounds are determined using the top of the treprostinil concentration-response curve.

T1 sequence (P43119 whole entry): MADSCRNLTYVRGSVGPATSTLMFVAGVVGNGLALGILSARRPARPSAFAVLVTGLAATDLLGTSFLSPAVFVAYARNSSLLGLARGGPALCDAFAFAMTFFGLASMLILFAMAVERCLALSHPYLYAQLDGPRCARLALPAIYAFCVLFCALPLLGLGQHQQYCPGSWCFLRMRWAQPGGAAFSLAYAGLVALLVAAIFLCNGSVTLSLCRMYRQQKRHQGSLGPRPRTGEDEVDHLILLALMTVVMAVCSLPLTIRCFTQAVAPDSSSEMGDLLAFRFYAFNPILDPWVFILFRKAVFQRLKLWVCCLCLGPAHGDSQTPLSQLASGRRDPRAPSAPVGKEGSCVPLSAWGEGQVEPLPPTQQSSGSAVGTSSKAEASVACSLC

Consider `Cc1ccc(-c2nc3c(nc2-c2ccc(C)cc2)N(CCCCC(O)CC(=O)O)CCC3)cc1` (single isomer, unassigned) [Example 17b, (R)-7-(2,3-Di-p-tolyl-7,8-dihydropyrido[2,3-b]pyrazin-5(6H)-yl)-3-hydroxyheptanoic acid or (S)-7-(2,3-Di-p-tolyl-7,8-dihydropyrido[2,3-b]pyrazin-5(6H)-yl)-3-hydroxyheptanoic acid], for which the response was half-maximal at 1.8 nM (EC50). `Cc1ccc(-c2nc3c(nc2-c2ccc(C)cc2)N(CCCCCCCC(=O)O)C(=O)CC3)cc1` [Example 1.2, 8-(6-Oxo-2,3-di-p-tolyl-7,8-dihydropyrido[2,3-b]pyrazin-5(6H)-yl)octanoic acid] registered an EC50 of 1.9 nM. The same measure for `CCC1Cc2nc(-c3ccc(C)cc3)c(-c3ccc(C)cc3)nc2N(CCCCCCC(=O)O)C1` (centres unmarked) [Example 2.1, 7-(7-Ethyl-2,3-di-p-tolyl-7,8-dihydropyrido[2,3-b]pyrazin-5(6H)-yl)heptanoic acid]: 0.4 nM. Consider `Cc1ccc(-c2nc3c(nc2-c2ccccc2)CC(C)CN3CCCCCCC(=O)O)cc1` (centres unmarked) [Example 2.2, 7-(7-Methyl-2-phenyl-3-(p-tolyl)-7,8-dihydropyrido[2,3-b]pyrazin-5(6H)-yl)heptanoic acid], for which a half-maximal effect (EC50) was put at 0.1 nM. `Cc1ccc(-c2nc3c(nc2-c2ccccc2)CCC(C)N3CCCCCCC(=O)O)cc1` (centres unmarked) [Example 2.4, 7-(6-Methyl-2-phenyl-3-p-tolyl-7,8-dihydropyrido[2,3-b]pyrazin-5(6H)-yl)heptanoic acid] yielded an EC50 of 2.4 nM. The same measure for `Cc1ccc(-c2nc3c(nc2-c2ccccc2C)N(CCCCCCC(=O)O)CCC3)cc1` [Example 2.5, 7-(3-o-Tolyl-2-p-tolyl-7,8-dihydropyrido[3,2-b]pyrazin-5(6H)-yl)heptanoic acid]: 3.9 nM; for `Cc1ccc(-c2nc3c(nc2-c2ccccc2C)CCCN3CCCCCCC(=O)O)cc1` [Example 2.6, 7-(2-o-Tolyl-3-p-tolyl-7,8-dihydropyrido[3,2-b]pyrazin-5(6H)-yl)heptanoic acid]: 0.6 nM; for `Cc1ccc(-c2nc3c(nc2-c2ccccc2F)CCCN3CCCCCCC(=O)O)cc1` [Example 2.7, 7-(2-(2-Fluorophenyl)-3-p-tolyl-7,8-dihydropyrido[2,3-b]pyrazin-5(6H)-yl)heptanoic acid]: 0.3 nM. The same measure for `Cc1ccc(-c2nc3c(nc2-c2ccc(F)cc2)CCCN3CCCCCCC(=O)O)cc1` [Example 2.8, 7-(2-(4-Fluorophenyl)-3-p-tolyl-7,8-dihydropyrido[2,3-b]pyrazin-5(6H)-yl)heptanoic acid]: 0.4 nM; for `Cc1ccc(-c2nc3c(nc2-c2cccc(F)c2)CCCN3CCCCCCC(=O)O)cc1` [Example 2.9, 7-(2-(3-Fluorophenyl)-3-p-tolyl-7,8-dihydropyrido[2,3-b]pyrazin-5(6H)-yl)heptanoic acid]: 0.1 nM. The figure for `COc1ccc(-c2nc3c(nc2-c2ccc(C)cc2)N(CCCCCCC(=O)O)CCC3)cc1` [Example 2.10, 7-(2-(4-Methoxyphenyl)-3-p-tolyl-7,8-dihydropyrido[2,3-b]pyrazin-5(6H)-yl)heptanoic acid] is 0.4 nM; for `O=C(O)CCCCCCN1CCCc2nc(-c3ccc(F)cc3F)c(-c3ccc(F)cc3F)nc21` [Example 4, 7-(2,3-Bis(2,4-difluorophenyl)-7,8-dihydropyrido[2,3-b]pyrazin-5(6H)-yl)heptanoic acid] it is 0.7 nM. In turn, `Cc1ccc(-c2nc3c(nc2-c2ccc(C)nc2)N(CCCCCCC(=O)O)CCC3)cn1` [Example 5, 7-(2,3-Bis(6-methylpyridin-3-yl)-7,8-dihydropyrido[2,3-b]pyrazin-5(6H)-yl)heptanoic acid] displayed an EC50 of 11.7 nM. In turn, `Cc1ccc(-c2nc3c(nc2-c2ccc(C)nc2)CCCN3CCCCCCC(=O)O)cc1` [Example 6, 7-(2-(6-Methylpyridin-3-yl)-3-p-tolyl-7,8-dihydropyrido[2,3-b]pyrazin-5(6H)-yl)heptanoic acid] yielded an EC50 of 0.2 nM.

The values above are taken from patent publication US9115129B2, “Substituted pyrido[2,3-B]pyrazines as IP receptor agonists” (Novartis AG, priority 2012, dated 2015).
